{
  "source": "patent US10619182B2",
  "about": "“Method, device and system for testing drug sensitivity” (HITACHI, LTD., priority 2014, dated 2020)",
  "assay_type_in_all_cases": "cell-based",
  "key": {"[1]": {"tested_on": "E. coli", "assay": "Time-dependent change in live and dead bacteria ATP luminescence amount (Methods (1) to (4))", "from_the_text": "Next, a method for measuring ATP derived from the live bacteria and the dead bacteria will be described with reference to FIG. 2. A live bacteria ATP method in Method (1) is used in eliminating ATP5 outside a bacterial cell so as to measure ATP2000 included in the cell membrane of the live bacterium 2 and ATP3000 included in the cell membrane of the dead bacterium 3 having no damage to the cell membrane. A submerged ATP method in Method (2) is used in measuring the dead bacteria 4 having the damaged cell membrane and the free ATP5 in the culture liquid 1 while the bacterial cells of the live bacterium 2 and the dead bacteria 3 and 4 are included. The dead bacterium 4 serves as a measurement target, since a substrate and enzyme of enzyme luciferase reaction which are bioluminescent molecules (to be described later) enter the dead bacterium 4 from a damaged site. […]\nNext, a result example obtained in such a way that E. coli as an example is processed according to Methods (1) to (4) so as to measure an ATP amount will be described with reference to FIGS. 4a and 4b. […] The luciferase oxidizes luciferin which serves as a substrate in the presence of ATP and Mg^2+ inside the bacteria, and a luminescence amount generated at that time is proportional to the ATP amount. Accordingly, bacteria growth is evaluated, based on a change in the luminescence amount.\nIn the present embodiment, the luminescence amount is represented by integration of a photon count value of 60 sec, and the unit is defined as the luminescence amount (amount of luminescence (a.u.)). As described above, the luminescence amount and the ATP amount are in a proportional relationship. In a case where the luminescence amount increases, it is determined that the ATP amount increases.\nFIG. 4a illustrates a result obtained by culturing E. coli on the absence of antibiotics. […] If the results in FIGS. 4a and 4b are compared with each other, in FIG. 4a, according to the live bacteria ATP method in Method (1), the luminescence amount increases with the lapse of the culture time until four hours of the culture time. […]"}, "[2]": {"tested_on": "Escherichia coli (ATCC25922 strain)", "assay": "Antimicrobial susceptibility test using the ATP method (dead bacteria ATP / live bacteria ATP ratio)", "details": "E. coli, ABPC 4 μg/mL, LVFX 0.125 μg/mL, FIG. 11", "method": "(§1) In this experiment, Escherichia coli (ATCC25922 strain; hereinafter, referred to as E. coli) and Staphylococcus aureus (ATCC25923; hereinafter, referred to as S. aureus) are used as the bacterial cell. An antimicrobial susceptibility test using the ATP method is carried out for both of these. As antibiotics, ampicillin and levofloxacin (hereinafter, referred to as LVFX) are used. First, the bacterial cells are cultured overnight on an LB agar medium, and the next day, a colony is suspended in a Mueller-Hinton (hereinafter, referred to as MH) medium, thereby preparing a bacterial suspension prepared in 0.5 McFarland. Next, the bacterial suspension diluted 500 times in the MH medium is distributed as much as each 50 μL to the plate to which the MH medium containing the antibiotic whose concentration is twice the final concentration is distributed in advance as much as each 50 μL. The static culture is carried out at 37° C. for a certain period of time, and the bacterial suspension is prepared. For the final concentration of the antibiotic, ABPC is set to 4 μg/mL and LVFX is set to 0.125 μg/mL in a case where E. coli is a measurement target. In a case where S. aureus is a measurement target, ABPC is set to 0.25 μg/mL and LVFX is set to 0.125 μg/mL. The bacterial cells are compared with the bacterial cells cultured in the MH medium having no antibiotic contained therein. The live bacteria ATP is prepared by mixing 2 μL of the ATP eliminating solution with 18 μL of the above-described bacteria culture liquid, and the mixture is left static at room temperature for 30 minutes. Thereafter, 20 μL of the ATP extracting reagent is mixed therewith, and the mixture is left static at room temperature for one minute so as to prepare the live bacteria ATP. The dead bacteria ATP is prepared by adding the bacteria culture liquid onto a filter (membrane pore size 0.22 μm). The filtrate obtained through filtering using centrifugation is used as the dead bacteria ATP. The luminescence reagent is added to the prepared live bacteria ATP or dead bacteria ATP, and is subjected to photon counting for one minute. The obtained luminescence amount (amount of luminescence (a.u.)) is used as an index of the ATP amount. According to the above-described experiment, a luminescence amount ratio between the dead ATP luminescence amount and the live ATP luminescence amount is obtained. FIGS. 11 and 12 illustrate a result obtained by calculating the luminescence amount ratio as an amount ratio between the live bacteria ATP and the dead bacteria ATP."}, "[3]": {"tested_on": "Staphylococcus aureus (ATCC25923)", "assay": "Antimicrobial susceptibility test using the ATP method (dead bacteria ATP / live bacteria ATP ratio)", "details": "S. aureus, ABPC 0.25 μg/mL, LVFX 0.125 μg/mL, FIG. 12", "method": "as §1"}},
  "data": [
    {"compound": "CC1(C)S[C@@H]2[C@H](NC(=O)[C@H](N)c3ccccc3)C(=O)N2[C@H]1C(=O)O", "note": "[ABPC, ampicillin]", "values": [
      {"measurement": "luminescence amount according to submerged ATP method (2) to total ATP method (4)", "setting": "[1]; E. coli cultured in the presence of 8 μg/mL ampicillin, FIG. 4b", "value": "increases or does not vary greatly"},
      {"measurement": "luminescence amount of the live bacteria ATP according to Method (1)", "setting": "[1]; E. coli cultured in the presence of 8 μg/mL ampicillin, after three hours of culture, FIG. 4b", "value": "decreases with the lapse of the culture time"},
      {"measurement": "action of the antibiotic on growth of live bacteria", "setting": "[1]; E. coli, 8 μg/mL ampicillin, during four hours of the culture time", "value": "stops the growth of the live bacteria so as to kill the bacteria with the lapse of time"},
      {"measurement": "time after start of antimicrobial susceptibility culture at which the effect can be determined (ratio dead bacteria ATP/live bacteria ATP = 1)", "setting": "[2]", "value": "approximately three"},
      {"measurement": "ratio of the dead bacteria ATP amount/the live bacteria ATP amount as the culture time elapses", "setting": "[2]; MH medium, 37° C.", "value": "increases"},
      {"measurement": "time after start of antimicrobial susceptibility culture at which the effect can be determined (ratio dead bacteria ATP/live bacteria ATP = 1)", "setting": "[3]", "value": "approximately two and a half"},
      {"measurement": "ratio of the dead bacteria ATP amount/the live bacteria ATP amount as the culture time elapses", "setting": "[3]; MH medium, 37° C.", "value": "increases"}
    ]}
  ]
}
